# In patent US5721246A, “Heterobicyclic sulfonamide and sulfonic ester derivatives” (Eisai Co., Ltd., priority 1993, dated 1998):
# Read-outs that look alike come from different tables or passages of the source.
# How the values were obtained:
# colon 38 = assay type: in vivo, mouse; conditions: once a day for 8 days, BDF1 mice, tumor weight on 21st day
# Procedure: In vivo Antitumor Test Against Colon 38 (Mouse Colon Cancer)
# About 75 mg of colon 38 was subcutaneously transplanted to the flank of each BDF1 mouse (aged 7 weeks, female). A test compound according to the present invention was suspended in a physiological saline containing 3.5% of dimethyl sulfoxide and 6.5% of Tween 80 and the obtained suspension was intraperitoneally administered to the mice in a predetermined dose once a day for 8 days from the next day of transplantation. On the other hand, only a physiological saline containing 3.5% of dimethyl sulfoxide and 6.5% of Tween 80 was intraperitoneally administered to the mice of the control group. The control group was composed of ten mice, while each treated group was composed of six mice.
# On the 21st day after the transplantation, the tumor was extirpated from each mouse to determine its weight. The tumor growth inhibition ratio was determined by the following formula: [formula] T: average weight of tumor of the treated group C: average weight of tumor of the control group
# HCT116 = assay: animal or person; conditions: Mus musculus, HCT-116, ip, 504 h, once a day for 4 days, nude mice, tumor weight on 21st day, read-out: Growth inhibition ratio
# Excerpt: In vivo Antitumor Test Against HCT116 (Human Colon Cancer)
# HCT116 (5 to 8×10^6) was subcutaneously transplanted to the flank of each nude mouse (BALB/c·nu/nu, aged 7 to 8 weeks, female). A test compound according to the present invention was suspended in a physiological saline containing 3.5% of dimethyl sulfoxide and 6.5% of Tween 80 and the obtained suspension was intraperitoneally administered to the mice treated above once a day in a predetermined dose for 4 days after the time at which the tumor volume had increased to about 100 mm^3, which was about 7 days after the transplantation. On the other hand, only a physiological saline containing 3.5% of dimethyl sulfoxide and 6.5% of Tween 80 was intraperitoneally administered to the mice of the control group. The control group was composed of ten mice, while each treated group was composed of five mice. On the 21st day after the initiation of administration, the tumor was extirpated from each mouse to determine its weight. The tumor growth inhibition ratio was determined by the following formula: [formula] T: average weight of tumor of the treated group C: average weight of tumor of the control group
# colon 38 cells = assay: In vitro antitumor test against colon 38 cells (MTT); assay type: cell-based; conditions: 72 h, concentration at which 50% of mouse colon 38 cells are inhibited, 3 days
# Procedure: In vitro Antitumor Test Against Colon 38 Cells (Mouse Colon Cancer Cells)
# 2.5×10^3 (0.1 ml) of colon 38 cells suspended in RPMI1640 medium (a product of Sanko Junyaku) containing 10% of fetal bovine serum, penicillin (100 units/ml), streptomycin (100 μg/ml), mercaptoethanol (5×10^-5 M) and sodium pyruvate (1 mM) were inoculated in each well of a 96-well flat-bottomed microplate, and cultured in an incubator containing 5% of carbon dioxide at 37° C. for one day.
# A test compound according to the present invention was dissolved in dimethyl sulfoxide in a concentration of 20 mg/ml and the resulting solution was diluted with 10% fetal bovine serum/RPMI1640 medium to a concentration of 200 μg/ml. The resulting solution was diluted with 10% fetal bovine serum/RPMI1640 medium to prepare 3-fold serial dilutions with the maximum concentration being 200 μg/ml. The obtained dilutions were each poured into the well of the above-described culture plate in an amount of 0.1 ml. The resulting plate was cultured at 37° C. in an incubator containing 5% of carbon dioxide for 3 days.
# Thereafter, a solution of MTT[3-(4,5-dimethylthiazol-2-yl)-2,5-diphenyltetrazolium bromide] (having a concentration of 3.3 mg/ml) was added to each well in an amount of 0.05 ml. The resulting mixtures were further incubated for 2 hours. The supernatant was removed from each well by suction. Formed formazan was dissolved in 0.1 ml of dimethyl sulfoxide. The absorbance at 540 nm was determined with a microplate reader and the absorbance was taken as an index of the number of viable cells. The inhibitory ratio of the test compound was calculated according to the following formula to determine the IC50 of the test compound, with the IC50 referring to the concentration at which 50% of mouse colon 38 cells are inhibited: [formula] T: absorbance of well containing a test compound C: absorbance of well containing no test compound
Compound,Growth inhibition ratio (colon 38; 200 mg/kg/day i.p.) [%],inhibition in vivo at 200 mg/kg (HCT116; 200 mg/kg/day i.p.) [%],IC50 (colon 38 cells) [µg/mL],Growth inhibition ratio (colon 38; 50 mg/kg/day i.p.) [%],inhibition in vivo at 100 mg/kg (HCT116; 100 mg/kg/day i.p.) [%]
"Nc1ccc(S(=O)(=O)Nc2cnc3c(Cl)cccc3n2)cc1 [CQS, 2-sulfanylamido-5-chloroquinoxaline, reference compound]",53,33,2,,
Nc1ccc(S(=O)(=O)Nc2cccc3c(Cl)c[nH]c23)cc1 [Example 3],,,0.23,94,
N#Cc1ccc(S(=O)(=O)Nc2cccc3c(Cl)c[nH]c23)cc1 [Example 10],,,0.13,94,
N#Cc1c[nH]c2c(NS(=O)(=O)c3cccc(Cl)c3)cccc12 [Example 17],,,0.13,94,
NC(=O)c1ccc(S(=O)(=O)Nc2cccc3c(Cl)c[nH]c23)cc1 [Example 29],,,0.19,97,80
CC(=O)c1ccc(S(=O)(=O)Nc2cccc3c(C#N)c[nH]c23)cc1 [Example 42],,,0.25,98,
